Results: US20230355571A1, “METHOD FOR TREATING VIRAL AND BACTERIAL INFECTION THROUGH INHALATION THERAPY” (priority 2020, published 2023)
pIC50, pKi: −log10 of the molar value. Converted amounts (≈) assume the structure as drawn. Where two headings read alike, the source gives them in different places.

Columns and labels:
mice [1] = assay: NOAEL, oral, mice; details: for factor NOAEL over daily inhaled dose: 2 mL/dose 4 times per day of Table A2 composition; for NOAEL for a 62 kg adult human: extrapolated from mouse NOAEL
K. pneumoniae = details: cited from earlier work
human whole blood = details: 102 μg/mL; cited from earlier work
P. aeruginosa = details: cited from earlier work
[2] = for Concentration in Epithelial Lining Fluid: single 2 mL dose, 25 mL ELF, 100 percent retained
CB2 receptor = CB2 receptor (Homo sapiens, UniProt P34972); details: unit inferred; read-out: Ki, CB2 receptor binding; cited from earlier work
DENV-2 (Dengue Virus 2) = details: cited from earlier work
[3] = cited from earlier work
[4] = system: Herpes simplex virus type 1 (HSV-1); details: cited from earlier work
[5] = system: human lung carcinoma (A549) cell line; details: cited from earlier work
S. aureus = details: cited from earlier work
E. coli (MTCC 732) = details: cited from earlier work
NCI-H358 cells = details: cited from earlier work
TRPV1 = TRPV1 (Homo sapiens, UniProt Q8NER1); details: cited from earlier work
hTRPA1 = hTRPA1 (Homo sapiens, UniProt O75762); details: cited from earlier work
human TRPM8 (hTRPM8) = human TRPM8 (hTRPM8) (Homo sapiens, UniProt Q7Z2W7); details: cited from earlier work
[6] = system: superoxide, super oxide dismutase, hydrogen peroxide, 8-isoprostanes; details: cited from earlier work
lymphocytes = details: cited from earlier work
[7] = system: patients with reversible obstructive ventilatory disorders; details: cited from earlier work
avian coronavirus (IBV) = details: cited from earlier work
mice [8] = details: oral, mice, 28-d; cited from earlier work
hTRPV2 = hTRPV2 (Homo sapiens, UniProt Q9Y5S1); details: cited from earlier work
blood monocytes = details: cited from earlier work
monocytes = details: cited from earlier work
[9] = system: patients with steroid-dependent bronchial asthma; details: cited from earlier work

Sequence of hTRPV2 (Q9Y5S1 whole entry): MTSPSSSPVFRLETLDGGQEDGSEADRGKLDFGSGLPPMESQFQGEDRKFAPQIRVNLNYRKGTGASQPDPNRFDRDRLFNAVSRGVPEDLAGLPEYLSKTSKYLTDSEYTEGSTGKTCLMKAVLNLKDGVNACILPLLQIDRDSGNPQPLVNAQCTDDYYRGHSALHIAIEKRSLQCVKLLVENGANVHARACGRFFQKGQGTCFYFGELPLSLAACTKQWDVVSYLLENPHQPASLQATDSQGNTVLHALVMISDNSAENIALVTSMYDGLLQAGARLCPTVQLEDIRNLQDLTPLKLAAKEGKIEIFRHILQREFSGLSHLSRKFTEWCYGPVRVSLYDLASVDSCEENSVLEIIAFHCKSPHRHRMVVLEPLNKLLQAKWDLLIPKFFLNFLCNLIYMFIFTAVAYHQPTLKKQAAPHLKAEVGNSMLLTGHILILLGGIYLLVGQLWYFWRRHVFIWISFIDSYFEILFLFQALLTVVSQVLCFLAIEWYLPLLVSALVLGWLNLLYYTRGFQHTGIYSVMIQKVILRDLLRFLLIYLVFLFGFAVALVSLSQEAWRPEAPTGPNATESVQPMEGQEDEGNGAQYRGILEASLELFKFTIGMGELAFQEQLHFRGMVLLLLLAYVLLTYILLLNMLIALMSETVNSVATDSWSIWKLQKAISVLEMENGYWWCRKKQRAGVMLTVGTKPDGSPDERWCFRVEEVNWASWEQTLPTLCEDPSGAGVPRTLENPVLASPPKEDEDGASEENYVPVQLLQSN
Sequence of TRPV1 (Q8NER1 whole entry): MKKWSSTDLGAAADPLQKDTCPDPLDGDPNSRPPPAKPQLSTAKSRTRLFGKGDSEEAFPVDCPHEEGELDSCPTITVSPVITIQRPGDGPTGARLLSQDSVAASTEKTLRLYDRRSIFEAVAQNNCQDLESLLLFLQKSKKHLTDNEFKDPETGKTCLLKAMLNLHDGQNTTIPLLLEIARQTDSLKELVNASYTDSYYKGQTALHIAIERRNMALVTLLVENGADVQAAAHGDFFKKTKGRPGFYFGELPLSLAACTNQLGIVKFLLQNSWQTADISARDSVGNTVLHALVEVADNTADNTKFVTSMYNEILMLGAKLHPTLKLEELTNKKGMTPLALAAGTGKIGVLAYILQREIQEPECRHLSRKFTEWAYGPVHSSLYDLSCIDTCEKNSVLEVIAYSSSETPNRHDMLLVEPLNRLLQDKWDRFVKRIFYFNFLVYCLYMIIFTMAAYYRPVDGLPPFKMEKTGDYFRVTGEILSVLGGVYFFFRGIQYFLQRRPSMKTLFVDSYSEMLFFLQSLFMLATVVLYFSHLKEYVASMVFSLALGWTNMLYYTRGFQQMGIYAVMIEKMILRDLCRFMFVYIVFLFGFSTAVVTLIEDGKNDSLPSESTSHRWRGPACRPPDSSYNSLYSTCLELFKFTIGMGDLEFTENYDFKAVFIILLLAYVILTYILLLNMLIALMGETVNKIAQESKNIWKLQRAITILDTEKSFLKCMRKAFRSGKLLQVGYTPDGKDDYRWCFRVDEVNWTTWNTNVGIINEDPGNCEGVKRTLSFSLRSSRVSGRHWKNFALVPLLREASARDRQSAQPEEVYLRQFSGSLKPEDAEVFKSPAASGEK
Sequence of hTRPA1 (O75762 whole entry): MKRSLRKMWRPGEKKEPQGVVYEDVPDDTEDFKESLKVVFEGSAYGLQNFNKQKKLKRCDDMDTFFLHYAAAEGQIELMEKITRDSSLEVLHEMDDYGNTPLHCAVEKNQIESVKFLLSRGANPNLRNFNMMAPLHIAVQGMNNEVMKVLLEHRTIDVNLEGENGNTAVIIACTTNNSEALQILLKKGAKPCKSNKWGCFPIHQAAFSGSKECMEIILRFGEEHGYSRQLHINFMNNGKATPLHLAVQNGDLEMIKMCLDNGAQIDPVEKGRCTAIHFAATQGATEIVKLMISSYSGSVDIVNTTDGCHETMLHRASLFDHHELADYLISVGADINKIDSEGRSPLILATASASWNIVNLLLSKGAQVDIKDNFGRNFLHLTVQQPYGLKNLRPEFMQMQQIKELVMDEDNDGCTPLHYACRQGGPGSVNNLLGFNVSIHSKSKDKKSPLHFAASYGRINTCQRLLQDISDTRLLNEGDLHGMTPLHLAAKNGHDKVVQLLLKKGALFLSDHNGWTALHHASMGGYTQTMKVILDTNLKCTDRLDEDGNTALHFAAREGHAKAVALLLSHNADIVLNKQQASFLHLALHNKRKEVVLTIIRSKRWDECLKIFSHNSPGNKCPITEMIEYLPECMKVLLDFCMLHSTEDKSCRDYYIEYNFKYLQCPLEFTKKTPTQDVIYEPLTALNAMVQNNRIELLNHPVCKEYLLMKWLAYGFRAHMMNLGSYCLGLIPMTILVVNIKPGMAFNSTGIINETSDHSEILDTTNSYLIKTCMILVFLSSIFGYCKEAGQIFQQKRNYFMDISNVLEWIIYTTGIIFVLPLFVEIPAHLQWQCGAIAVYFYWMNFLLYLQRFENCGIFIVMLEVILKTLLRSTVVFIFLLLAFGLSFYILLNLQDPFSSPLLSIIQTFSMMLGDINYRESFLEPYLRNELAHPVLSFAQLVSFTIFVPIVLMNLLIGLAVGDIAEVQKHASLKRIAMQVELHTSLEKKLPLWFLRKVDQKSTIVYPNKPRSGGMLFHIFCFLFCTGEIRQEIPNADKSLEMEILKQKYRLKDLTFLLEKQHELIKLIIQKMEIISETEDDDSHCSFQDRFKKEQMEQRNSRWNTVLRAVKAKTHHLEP
Sequence of human TRPM8 (hTRPM8) (Q7Z2W7 whole entry): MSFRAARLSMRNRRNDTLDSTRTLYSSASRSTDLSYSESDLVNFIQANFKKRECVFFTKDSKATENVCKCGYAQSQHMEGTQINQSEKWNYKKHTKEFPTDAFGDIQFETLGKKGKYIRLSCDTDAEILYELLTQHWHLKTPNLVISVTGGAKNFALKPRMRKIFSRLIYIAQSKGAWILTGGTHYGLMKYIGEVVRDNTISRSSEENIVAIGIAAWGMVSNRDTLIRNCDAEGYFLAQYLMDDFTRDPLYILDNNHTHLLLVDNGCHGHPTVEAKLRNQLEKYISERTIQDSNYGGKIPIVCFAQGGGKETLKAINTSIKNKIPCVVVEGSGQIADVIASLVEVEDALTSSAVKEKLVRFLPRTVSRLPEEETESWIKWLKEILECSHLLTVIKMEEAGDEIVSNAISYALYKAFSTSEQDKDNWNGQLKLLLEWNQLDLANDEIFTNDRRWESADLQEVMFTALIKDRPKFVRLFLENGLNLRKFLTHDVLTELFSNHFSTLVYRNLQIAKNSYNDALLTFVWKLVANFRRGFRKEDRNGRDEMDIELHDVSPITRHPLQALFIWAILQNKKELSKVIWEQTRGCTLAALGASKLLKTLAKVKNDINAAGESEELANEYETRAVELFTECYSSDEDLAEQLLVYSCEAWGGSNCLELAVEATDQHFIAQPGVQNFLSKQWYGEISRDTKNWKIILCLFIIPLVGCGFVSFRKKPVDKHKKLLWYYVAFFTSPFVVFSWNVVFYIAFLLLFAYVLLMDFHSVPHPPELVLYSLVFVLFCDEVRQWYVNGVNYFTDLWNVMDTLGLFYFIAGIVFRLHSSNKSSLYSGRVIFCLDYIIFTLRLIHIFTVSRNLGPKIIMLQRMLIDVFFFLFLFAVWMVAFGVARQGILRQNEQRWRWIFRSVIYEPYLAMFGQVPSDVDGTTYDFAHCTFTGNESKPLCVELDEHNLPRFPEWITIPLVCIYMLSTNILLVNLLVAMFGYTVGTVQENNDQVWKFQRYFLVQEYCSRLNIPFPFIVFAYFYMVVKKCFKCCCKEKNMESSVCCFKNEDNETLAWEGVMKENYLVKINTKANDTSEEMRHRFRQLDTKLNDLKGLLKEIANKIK
Sequence of CB2 receptor (P34972 whole entry): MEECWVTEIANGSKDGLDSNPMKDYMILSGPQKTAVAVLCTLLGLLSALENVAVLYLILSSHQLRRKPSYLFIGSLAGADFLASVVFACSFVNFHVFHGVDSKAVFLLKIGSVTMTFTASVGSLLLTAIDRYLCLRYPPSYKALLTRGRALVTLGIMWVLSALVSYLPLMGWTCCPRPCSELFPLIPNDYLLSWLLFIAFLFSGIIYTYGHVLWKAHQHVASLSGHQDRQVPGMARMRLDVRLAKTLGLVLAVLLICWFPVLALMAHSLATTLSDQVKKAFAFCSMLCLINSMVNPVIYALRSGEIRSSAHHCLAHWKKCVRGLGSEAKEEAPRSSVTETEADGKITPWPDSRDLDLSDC

For `C=C1CC/C=C(\C)CC[C@@H]2[C@@H]1CC2(C)C` [β-caryophyllene], the “factor NOAEL over daily inhaled dose” value (mice [1]) is given as 868 times, the “NOAEL for a 62 kg adult human” value (mice [1]) is given as 43,400 mg per day and the MIC (K. pneumoniae) is given as 14 µM (≈ 2.86 µg/mL). The “LPS-stimulated IL-1β and TNF-α expression” value (human whole blood) was “inhibits”, the MIC (P. aeruginosa) was 7 µM (≈ 1.43 µg/mL) and the “Concentration in Epithelial Lining Fluid” value ([2]; Table A2 Preferred Base Viral Nebulizer Liquid) was 0.60 mg/mL. The “Concentration in Epithelial Lining Fluid” value ([2]; Table A3 Preferred Viral Respiratory Challenged Nebulizer Liquid) was 0.97 mg/mL, the “Concentration in Epithelial Lining Fluid” value ([2]; Table A4 Preferred Bacterial Pneumonia Nebulizer Liquid) was 1.45 mg/mL and the “Concentration in Epithelial Lining Fluid” value ([2]; Table A6 Preferred Base Nebulizer Liquid with Amino Acids) was 1.45 mg/mL. For the same compound, the pKi (CB2 receptor) was 6.81, the selectivity index (DENV-2 (Dengue Virus 2); DENV-2, non-cytostatic) was 71.1 and the pIC50 (DENV-2 (Dengue Virus 2)) was 4.65. The “IC50, DENV-2” value (DENV-2 (Dengue Virus 2)) was 4.6 mg/L (≈ 22.5 µM), the LD50 ([3]; in vivo) was > 5,000 mg/kg and the pIC50 [4] was 6.60. For the same compound, the “cytotoxic IC50” value [5] was 28.18 ± 1.96 µg/mL, the MIC (S. aureus) was 3 µM (≈ 0.613 µg/mL) and the “Minimum Inhibitory Concentration (MIC)” value (E. coli (MTCC 732)) was 9.0 ± 2.2 µM. For the same compound, the “cytotoxic IC50” value (NCI-H358 cells) was 31.19 ± 2.01 µg/mL.

In the case of `CC12CCC(CC1)C(C)(C)O2` [1,8-cineole], the “factor NOAEL over daily inhaled dose” value (mice [1]) is given as 697.5 times, the “NOAEL for a 62 kg adult human” value (mice [1]) is given as 34,875 mg per day and the “activation of hTRPV1” value (TRPV1) is given as “did not activate”. The “activation of hTRPA1” value (hTRPA1) was “did not activate”, the “activation of hTRPM8” value (human TRPM8 (hTRPM8)) was “activates” and the “LPS-stimulated 8-isoprostanes” value ([6]; 10^−5 M) was −84%. The “LPS-stimulated 8-isoprostanes” value ([6]; 10^−6 M) was −42%, the “inhibition of IL-1β production by lymphocytes” value (lymphocytes; 0.15 μg/ml) was 36% and the “inhibition of TNF-α production by lymphocytes” value (lymphocytes; 0.15 μg/ml) was 16%. For the same compound, the “inhibition of IL-4 production in lymphocytes” value (lymphocytes; 1.5 μg/mL) was 70%, the “inhibition of IL-5 production in lymphocytes” value (lymphocytes; 1.5 μg/mL) was 65% and the “inhibition of TNFα production in lymphocytes” value (lymphocytes; 1.5 μg/mL) was 92%. For the same compound, the “inhibition of cytokine production in lymphocytes, second value (cytokine not named)” value (lymphocytes; 1.5 μg/mL) was 84%, the “estimated concentration in the epithelial lining fluid of the lungs” value ([2]; human) was 614 µg/mL and the “improvement of airway resistance” value ([7]; treatment duration eight weeks) was −21%. The “improvement of airway resistance” value ([7]; treatment duration one week) was −23%, the pIC50 (avian coronavirus (IBV)) was 3.21 and the NOAEL (mice [8]) was 562.5 mg/kg. For the same compound, the “activation of hTRPV2” value (hTRPV2) was “did not activate”, the “production of LTB4 from monocytes ex vivo” value (blood monocytes; day 4, healthy volunteers) was −57.9% and the “production of PGE2 from monocytes ex vivo” value (blood monocytes; day 4, healthy volunteers) was −42.7%. For the same compound, the “production of LTB4 from monocytes ex vivo” value (blood monocytes; day 4, patients with bronchial asthma, 200 mg 3 times/day) was −40.3%, the “production of PGE2 from monocytes ex vivo” value (blood monocytes; day 4, patients with bronchial asthma) was −31.3% and the “inhibition of IL-1β production by monocytes” value (monocytes; 0.15 μg/ml) was 61%. The “inhibition of TNFα production by monocytes” value (monocytes; 0.15 μg/ml) was 77%, the “inhibition of IL-1β production in monocytes” value (monocytes; 1.5 μg/mL) was 84% and the “inhibition of IL-6 production in monocytes” value (monocytes; 1.5 μg/mL) was 76%. For the same compound, the “inhibition of IL-8 production in monocytes” value (monocytes; 1.5 μg/mL) was 65%, the “inhibition of TNFα production in monocytes” value (monocytes; 1.5 μg/mL) was 99% and the LD50 ([3]; in vivo) was 2,480 mg/kg. The “LD50” value ([3]; oral, rat) was 2,480 mg/kg, the “mean reduction in daily prednisolone dosage” value ([9]; 200 mg 3 times per day orally, 12 weeks, placebo 0.91 mg) was 3.75 mg and the “reductions in daily prednisolone dosage tolerated” value ([9]; 200 mg 3 times per day orally, 12 weeks, placebo 7%) was 36%. The “patients achieving a reduction of oral steroids” value ([9]; 1,8-cineole group, placebo four out of 16) was “Twelve of 16”.
